# Experimental data taken from patent US20060287528A1, “Novel crystalline forms of a phosphoric acid salt of a dipeptidyl peptidase-iv inhibitor” (priority 2003, published 2006).
# Legend:
# Solubility in water = type: physicochemical
# [1] = Solid-state stability and interconversion of the crystalline forms; type: physicochemical; conditions: for temperature range in which the polymorph is the stable form (enantiotropic transition temperature): Form I / Form III enantiotropic pair, transition about 34° C.
Compound,solubility (Solubility in water) [mg/mL],temperature range in which the polymorph is the stable form (enantiotropic transition temperature) [1],"time for conversion to anhydrate Form I or Form III or mixtures thereof ([1]; at about 45° C., form is metastable)"
N[C@@H](CC(=O)N1CCn2c(nnc2C(F)(F)F)C1)Cc1cc(F)c(F)cc1F [anhydrate Form I],> 120,above 34 °C,–
N[C@@H](CC(=O)N1CCn2c(nnc2C(F)(F)F)C1)Cc1cc(F)c(F)cc1F [anhydrate Form III],–,below 34 °C,–
N[C@@H](CC(=O)N1CCn2c(nnc2C(F)(F)F)C1)Cc1cc(F)c(F)cc1F [desolvated anhydrate Form II],–,–,about 2 h
